Measurements from patent US6849272B1, “Endosomolytic agents and cell delivery systems” (Massachusetts Institute of Technology, priority 1999, dated 2005).

Assays:
[1] = test system: cells; details: in vitro; cited from earlier work
[2] = test system: cells; type: cell-based
Text: Another synthetic polymer that has been recently evaluated for its ability to mediate gene transfer is polyethyleneimine (PEI) which contains primary, secondary, and tertiary amines (Abdallah, B.; Hassan, A.; Benoist; Goula, D.; Behr, J. P.; Demeneix, B. A. Human Gene Therapy 1996, 7, 1947; Boussif, O.; Lezoualc'h, F.; Zanta, M. A.; Mergny, M. D., Scherman, D.; Demeneix, B.; Behr, J. P. Proc. Natl. Acad. Sci. USA 1995, 92, 7297). The advantage of PEI over polylysine as a mediator for gene transfer is that it contains a built-in mechanism for endosome escape. The overall protonation of PEI at pH=7 is approximately 20% whereas the overall protonation at pH=5 is approximately 45% (Suh, J.; Paik, H. J.; Hwang, B. K. Bioorg. Chem. 1994, 22, 318). […] In fact, PEI is capable of mediating gene transfer equal to the best lipid systems.

Compound	concentration required to enhance transfection [1]	toxicity to cells in vitro [2]
OCC(O)CO [glycerol]	1-1.5 M	–
polyethyleneimine [PEI]	–	toxic to cells in vitro
